Results as given in US20250214977A1, “STAT6 INHIBITORS AND USES THEREOF” (Kymera Therapeutics, Inc., priority 2024, published 2025).

Each compound was assayed on Phosphorylation of STAT6 in human PBMC (CD19+ B cells) (assay: Phosphorylated STAT6 (pSTAT6) flow cytometry assay in human PBMC, IL-4 stimulated). Settings: compound 1 hour, 1 ng/ml IL-4 for 15 minutes, read-out: STAT6 IL4 pSTAT6 assay in PBMC: Average IC50.
Assay type: cell-based
Summary of the method: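 Human PBMC preincubated 1 h at 37 °C with compound (9-point 1:3 series, top up to 30 μM), then stimulated with 1 ng/ml IL-4 for 15 min. After fixation, methanol permeabilization and staining, pSTAT6 quantified in CD19+ B cells by flow cytometry; four-parameter fit of inhibition.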
With `CN(C)C(=O)c1cc2cc(C3=CCCN(C(=O)CCc4cncnc4)C3)ccc2o1` [Example I-272] the IC50 was > 100 µM.
`CN(C)C(=O)c1cc2cc(C3=CCCN(C(=O)CCn4ccnn4)C3)cc(C3CCNCC3)c2o1` [Example I-215] showed an IC50 of 10 to 100 µM.
With `CN(C)C(=O)c1nc2cc(C3=CCCN(C(=O)CCn4ccnn4)C3)ccc2s1` [Example I-192] the IC50 was > 100 µM.
For `CN(C)C(=O)c1cc2ccc(C3=CCCN(C(=O)CCn4ccnn4)C3)cn2n1` [Example I-298], the IC50 was > 100 µM.
`CN(C)C(=O)c1cc2ccc(C3=CCCN(C(=O)c4cccnc4SCc4ccccc4)C3)cc2[nH]1` [Example I-95] was tested, and the IC50 was > 100 µM.
In the case of `CC(=O)Nc1ccc(CC(=O)N2CCC=C(c3ccc4oc(C(=O)N(C)C)cc4c3)C2)cc1` [Example I-287], the IC50 is reported as > 100 µM.
For `O=C(NCCO)c1cc2cc(C3=CCCN(C(=O)CCn4ccnn4)C3)ccc2o1` [Example I-307], the IC50 was > 100 µM.
With `Cc1nocc1C(=O)N1CCC=C(c2ccc3cc(C(=O)N(C)C)[nH]c3c2)C1` [Example I-35] the IC50 was 10 to 100 µM.
In the case of `CN(C)C(=O)c1cc2cc(C3=CCCN(C(=O)Cc4ccccn4)C3)ccc2o1` [Example I-263], the IC50 is reported as > 100 µM.
In the case of `CN(C)C(=O)c1cc2cc(C3=CCCN(C(=O)CCn4ccnn4)C3)ccc2s1` [Example I-243], the IC50 is reported as > 100 µM.
`CC(=O)N1CCc2ccccc2[C@H]1C(=O)N1CCC=C(c2ccc3oc(C(=O)N(C)C)cc3c2)C1` (single isomer, unassigned) [Example I-176] was tested, and the IC50 was > 100 µM.
`CN(C)C(=O)c1cc2ccc(C3=CCCN(C(=O)[C@@H](Cn4ccnn4)c4cccc(O)c4)C3)cc2[nH]1` [Example I-122] was tested, and the IC50 was > 100 µM.
In the case of `CC(=O)NCc1ccc(CC(=O)N2CCC=C(c3ccc4oc(C(=O)N(C)C)cc4c3)C2)cc1` [Example I-252], the IC50 is reported as > 100 µM.
`CN(C)C(=O)c1cc2ccc(C3=CCCN(C(=O)C4CCC4C(=O)O)C3)cc2[nH]1` (centres unmarked) [Example I-39] gave an IC50 of 10 to 100 µM.
With `COC(=O)CCC#Cc1cccc2c1CC(C(=O)N1CCC=C(c3ccc4oc(C(=O)N(C)C)cc4c3)C1)N(C=O)C2` (centres unmarked) [Example I-175] the IC50 was 1 to 10 µM.
With `CN(C)C(=O)c1cc2ccc(C3=CCCN(C(=O)C4CCN(S(C)(=O)=O)CC4)C3)cc2[nH]1` [Example I-140] the IC50 was > 100 µM.
`CN(C)C(=O)c1cc2cc([C@H]3CN(C(=O)CCn4ccnn4)CC[C@@H]3O)ccc2o1` (single isomer, unassigned) [Example I-210] was tested, and the IC50 was > 100 µM.
For `Cc1cccc(-c2ncccc2C(=O)N2CCC=C(c3ccc4cc(C(=O)N(C)C)[nH]c4c3)C2)c1` [Example I-86], the IC50 was > 100 µM.
In the case of `CN(C)C(=O)c1cc2ccc(C3=CCCN(C(=O)CCCn4ncc5nc(Cl)ccc54)C3)cc2[nH]1` [Example I-90], the IC50 is reported as 10 to 100 µM.
Work on `CNCc1cc(C2=CCCN(C(=O)CCn3ccnn3)C2)cc2cc(C(=O)N(C)C)oc12` [Example I-203] yielded an IC50 of 10 to 100 µM.
In the case of `CN(C)C(=O)c1cc2cc(C3CCC(CO)N(C(=O)CCn4ccnn4)C3)ccc2o1` (centres unmarked) [Example I-155], the IC50 is reported as > 100 µM.
In the case of `CN(C)C(=O)c1cc2ccc(C3=CCCN(C(=O)C4CC(O)C4)C3)cc2[nH]1` (centres unmarked) [Example I-28], the IC50 is reported as 10 to 100 µM.
Compound `CN(C)C(=O)c1cc2cc(C3=CCCN(C(=O)CCn4ccnn4)C3)cc(CN3CCCCC3)c2o1` [Example I-185] has an IC50 of 10 to 100 µM.
Work on `CC(=O)c1cc(C(=O)N2CCC=C(c3ccc4cc(C(=O)N(C)C)[nH]c4c3)C2)n[nH]1` [Example I-49] yielded an IC50 of 10 to 100 µM.
For `CN(C)C(=O)c1cc2ccc(C3=CCCN(C(=O)C4Cc5ccccc5CN4C=O)C3)cc2[nH]1` (centres unmarked) [Example I-202], the IC50 was 0.1 to 1 µM.
`CN(C)C(=O)c1cc2ccc(C3=CCCN(C(=O)c4ccc5c(c4)OCC(=O)N5)C3)cc2[nH]1` [Example I-132] was tested, and the IC50 was > 100 µM.
`CN(C)C(=O)c1cc2ccc(C3=CCCN(C(=O)C45CC(C(F)(F)F)(C4)C5)C3)cc2[nH]1` [Example I-55] was tested, and the IC50 was 10 to 100 µM.
`CN(C)C(=O)c1cc2ccc(C3=CCCN(C(=O)C4COCC(=O)N4Cc4ccccc4)C3)cc2[nH]1` (centres unmarked) [Example I-93] showed an IC50 of 10 to 100 µM.
For `C[C@@H](Cn1ccnn1)C(=O)N1CCC=C(c2ccc3oc(C(=O)N(C)C)cc3c2)C1` (single isomer, unassigned) [Example I-229], the IC50 was > 100 µM.
